The results in this text go back to ChEMBL document CHEMBL1127954, “A new approach to synthesis of vinblastine analogs. Addition of organozinc reagents to the dihydropyridinium ion generated by fragmentative coupling to catharanthine and vindoline” (Bioorg Med Chem Lett, 1994).

This test deals with Tubulin (Bos taurus, UniProt Q6B856+Q862L2+Q862F3). Description: In vitro inhibitory activity against bovine brain tubulin assembly at a concentration of 3-3.5 mg/ml. Format: functional.

Several values for one entry are separate records, joined by “and”; a condition that tells them apart may be missing. Equal values may be shown once.

As for `CCC1=CC2CN(CCc3c([nH]c4ccccc34)[C@@](C(=O)OC)(c3cc4c(cc3OC)N(C)C3C45CCN4CC=CC(CC)(C45)C(OC(C)=O)[C@]3(O)C(=O)OC)C2)[C@@H]1C#Cc1ccccc1` (stereo not given in full), the concentration for half-maximal inhibition (IC50) (in general, the concentration that gives 50% inhibition) is 21000 nM and 28000 nM.

Regarding `CCC1=CC2CN(CCc3c([nH]c4ccccc34)[C@@](C(=O)OC)(c3cc4c(cc3OC)N(C)C3C45CCN4CC=CC(CC)(C45)C(OC(C)=O)[C@]3(O)C(=O)OC)C2)[C@@H]1c1ccccc1` (stereo not given in full), the IC50 was 1400 nM and 1600 nM.

As to `CCC1CN2CCc3c([nH]c4ccccc34)[C@@](C(=O)OC)(c3cc4c(cc3OC)N(C)C3C45CCN4CC=CC(CC)(C45)C(OC(C)=O)[C@]3(O)C(=O)OC)CC(C2)[C@H]1c1ccccc1` (stereo not given in full), the IC50 was 500 nM and 600 nM.

Regarding `CCC1CN2CCc3c([nH]c4ccccc34)[C@@](C(=O)OC)(c3cc4c(cc3OC)N(C)C3C45CCN4CC=CC(CC)(C45)C(OC(C)=O)[C@]3(O)C(=O)OC)CC(C2)[C@H]1C(C)(C)C` (stereo not given in full), the IC50 was found to be 400 nM. This counts as sub-micromolar.

Regarding `CCC1CN2CCc3c([nH]c4ccccc34)[C@@](C(=O)OC)(c3cc4c(cc3OC)N(C)C3C45CCN4CC=CC(CC)(C45)C(OC(C)=O)[C@]3(O)C(=O)OC)CC(C2)[C@H]1CC` (stereo not given in full), the concentration for half-maximal inhibition (IC50) is 1300 nM and 1400 nM.
